The supplement of paper PMC10307832

Experiments:
Test in all cases: relative viability (nuclei count vs DMSO), 5 days (fraction); higher = more cells survive
NCI-H1975 = test system: NCI-H1975
Summary of the method: (§1)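 Medians of duplicate plates are given as relative viability. That measure is the nuclei count in treated wells divided by the count in vehicle wells. Counts were taken on 4× images of lung cancer cell lines in 1536-well plates, 5 days after pin-tool dosing the day after seeding with one drug alone or a fixed anchor-drug dose plus five library-drug doses (not always all listed) in √10 steps.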

COR-L 105 = test system: COR-L 105
Summary of the method: as §1

201T = test system: 201T
Summary of the method: as §1

LU99A = test system: LU99A
Summary of the method: as §1

NCI-H2085 = test system: NCI-H2085
Summary of the method: as §1

NCI-H2126 = test system: NCI-H2126
Summary of the method: as §1

PC-3 [JPC-3] = test system: PC-3 [JPC-3]
Summary of the method: as §1

HCC-827 = test system: HCC-827
Summary of the method: as §1

SW 1573 = test system: SW 1573
Summary of the method: as §1

NCI-H1437 = test system: NCI-H1437
Summary of the method: as §1

NCI-H647 = test system: NCI-H647
Summary of the method: as §1

LCLC-97TM1 = test system: LCLC-97TM1
Summary of the method: as §1

NCI-H2087 = test system: NCI-H2087
Summary of the method: as §1

EPLC-272H = test system: EPLC-272H
Summary of the method: as §1

NCI-H358 = test system: NCI-H358
Summary of the method: as §1

H3255 = test system: H3255
Summary of the method: as §1

HCC-44 = test system: HCC-44
Summary of the method: as §1

LOU-NH91 = test system: LOU-NH91
Summary of the method: as §1

EKVX = test system: EKVX
Summary of the method: as §1

NCI-H1395 = test system: NCI-H1395
Summary of the method: as §1

NCI-H1666 = test system: NCI-H1666
Summary of the method: as §1

NCI-H2342 = test system: NCI-H2342
Summary of the method: as §1

BEN = test system: BEN
Summary of the method: as §1

HOP-62 = test system: HOP-62
Summary of the method: as §1

`COc1cc(N2CCC(C(N)=O)CC2)ccc1Nc1nc(N)c(Cl)c(Nc2ccccc2S(=O)(=O)C(C)C)n1` [HG-5-88-01] + Cc1cc(Nc2cc(N3CCN(C)CC3)nc(Sc3ccc(NC(=O)C4CC4)cc3)n2)n[nH]1 [Tozasertib] (partner 0.1 µM) was tested, and the relative viability (NCI-H1975; first compound 0.04 µM) was 0.815, the relative viability (NCI-H1975; first compound 0.1265 µM) was 0.715 and the relative viability (NCI-H1975; first compound 0.4 µM) was 0.565. For the same molecule, the relative viability (NCI-H1975; first compound 1.265 µM) was 0.251, the relative viability (NCI-H1975; first compound 4 µM) was 0.143 and the relative viability (COR-L 105; first compound 0.04 µM) was 0.377. The relative viability (COR-L 105; first compound 0.1265 µM) was 0.379, the relative viability (COR-L 105; first compound 0.4 µM) was 0.317 and the relative viability (COR-L 105; first compound 1.265 µM) was 0.312. The relative viability (COR-L 105; first compound 4 µM) was 0.42, the relative viability (201T; first compound 0.04 µM) was 0.963 and the relative viability (201T; first compound 0.1265 µM) was 0.903. It also gave a relative viability (201T; first compound 0.4 µM) of 0.939, a relative viability (201T; first compound 1.265 µM) of 0.871 and a relative viability (201T; first compound 4 µM) of 0.911. For the same molecule, the relative viability (LU99A; first compound 0.04 µM) was 0.29, the relative viability (LU99A; first compound 0.1265 µM) was 0.301 and the relative viability (LU99A; first compound 0.4 µM) was 0.264. It also gave a relative viability (LU99A; first compound 1.265 µM) of 0.267, a relative viability (LU99A; first compound 4 µM) of 0.266 and a relative viability (NCI-H2085; first compound 0.04 µM) of 0.805. It also gave a relative viability (NCI-H2085; first compound 0.1265 µM) of 0.784, a relative viability (NCI-H2085; first compound 0.4 µM) of 0.776 and a relative viability (NCI-H2085; first compound 1.265 µM) of 0.696. For the same molecule, the relative viability (NCI-H2085; first compound 4 µM) was 0.391, the relative viability (NCI-H2126; first compound 0.04 µM) was 0.937 and the relative viability (NCI-H2126; first compound 0.1265 µM) was 0.941. The relative viability (NCI-H2126; first compound 0.4 µM) was 0.849, the relative viability (NCI-H2126; first compound 1.265 µM) was 0.467 and the relative viability (NCI-H2126; first compound 4 µM) was 0.487. For the same molecule, the relative viability (PC-3 [JPC-3]; first compound 0.04 µM) was 0.954, the relative viability (PC-3 [JPC-3]; first compound 0.1265 µM) was 0.825 and the relative viability (PC-3 [JPC-3]; first compound 0.4 µM) was 0.882. For the same molecule, the relative viability (PC-3 [JPC-3]; first compound 1.265 µM) was 0.863, the relative viability (PC-3 [JPC-3]; first compound 4 µM) was 0.702 and the relative viability (HCC-827; first compound 0.04 µM) was 0.475. The relative viability (HCC-827; first compound 0.1265 µM) was 0.439, the relative viability (HCC-827; first compound 0.4 µM) was 0.401 and the relative viability (HCC-827; first compound 1.265 µM) was 0.346. For the same molecule, the relative viability (HCC-827; first compound 4 µM) was 0.263, the relative viability (SW 1573; first compound 0.04 µM) was 0.169 and the relative viability (SW 1573; first compound 0.1265 µM) was 0.128. It also gave a relative viability (SW 1573; first compound 0.4 µM) of 0.166, a relative viability (SW 1573; first compound 1.265 µM) of 0.157 and a relative viability (SW 1573; first compound 4 µM) of 0.162. The relative viability (NCI-H1437; first compound 0.04 µM) was 0.409, the relative viability (NCI-H1437; first compound 0.1265 µM) was 0.398 and the relative viability (NCI-H1437; first compound 0.4 µM) was 0.356. For the same molecule, the relative viability (NCI-H1437; first compound 1.265 µM) was 0.301, the relative viability (NCI-H1437; first compound 4 µM) was 0.316 and the relative viability (NCI-H647; first compound 0.04 µM) was 0.236. The relative viability (NCI-H647; first compound 0.1265 µM) was 0.403, the relative viability (NCI-H647; first compound 0.4 µM) was 0.309 and the relative viability (NCI-H647; first compound 1.265 µM) was 0.203. The relative viability (NCI-H647; first compound 4 µM) was 0.216, the relative viability (LCLC-97TM1; first compound 0.04 µM) was 0.215 and the relative viability (LCLC-97TM1; first compound 0.1265 µM) was 0.205. For the same molecule, the relative viability (LCLC-97TM1; first compound 0.4 µM) was 0.226, the relative viability (LCLC-97TM1; first compound 1.265 µM) was 0.148 and the relative viability (LCLC-97TM1; first compound 4 µM) was 0.0909. For the same molecule, the relative viability (NCI-H2087; first compound 0.04 µM) was 0.266, the relative viability (NCI-H2087; first compound 0.1265 µM) was 0.203 and the relative viability (NCI-H2087; first compound 0.4 µM) was 0.262. For the same molecule, the relative viability (NCI-H2087; first compound 1.265 µM) was 0.22, the relative viability (NCI-H2087; first compound 4 µM) was 0.14 and the relative viability (EPLC-272H; first compound 0.04 µM) was 0.257. The relative viability (EPLC-272H; first compound 0.1265 µM) was 0.301, the relative viability (EPLC-272H; first compound 0.4 µM) was 0.323 and the relative viability (EPLC-272H; first compound 1.265 µM) was 0.141. It also gave a relative viability (EPLC-272H; first compound 4 µM) of 0.063, a relative viability (NCI-H358; first compound 0.04 µM) of 0.107 and a relative viability (NCI-H358; first compound 0.1265 µM) of 0.0991. The relative viability (NCI-H358; first compound 0.4 µM) was 0.0776, the relative viability (NCI-H358; first compound 1.265 µM) was 0.0713 and the relative viability (NCI-H358; first compound 4 µM) was 0.0702. It also gave a relative viability (H3255; first compound 0.04 µM) of 0.71, a relative viability (H3255; first compound 0.1265 µM) of 0.791 and a relative viability (H3255; first compound 0.4 µM) of 0.616. It also gave a relative viability (H3255; first compound 4 µM) of 0.731, a relative viability (HCC-44; first compound 0.04 µM) of 1.1 and a relative viability (HCC-44; first compound 0.1265 µM) of 0.928. It also gave a relative viability (HCC-44; first compound 0.4 µM) of 0.745, a relative viability (HCC-44; first compound 1.265 µM) of 0.328 and a relative viability (HCC-44; first compound 4 µM) of 0.14. It also gave a relative viability (LOU-NH91; first compound 0.04 µM) of 0.657, a relative viability (LOU-NH91; first compound 0.1265 µM) of 0.614 and a relative viability (LOU-NH91; first compound 0.4 µM) of 0.513. The relative viability (LOU-NH91; first compound 1.265 µM) was 0.376, the relative viability (LOU-NH91; first compound 4 µM) was 0.366 and the relative viability (EKVX; first compound 0.04 µM) was 0.356. The relative viability (EKVX; first compound 0.1265 µM) was 0.396, the relative viability (EKVX; first compound 0.4 µM) was 0.374 and the relative viability (EKVX; first compound 4 µM) was 0.286. It also gave a relative viability (NCI-H1395; first compound 0.04 µM) of 0.79, a relative viability (NCI-H1395; first compound 0.1265 µM) of 0.692 and a relative viability (NCI-H1395; first compound 0.4 µM) of 0.859. For the same molecule, the relative viability (NCI-H1395; first compound 1.265 µM) was 0.716, the relative viability (NCI-H1395; first compound 4 µM) was 0.65 and the relative viability (NCI-H1666; first compound 0.04 µM) was 0.577. For the same molecule, the relative viability (NCI-H1666; first compound 0.1265 µM) was 0.603, the relative viability (NCI-H1666; first compound 0.4 µM) was 0.556 and the relative viability (NCI-H1666; first compound 1.265 µM) was 0.498. It also gave a relative viability (NCI-H1666; first compound 4 µM) of 0.346, a relative viability (NCI-H2342; first compound 0.04 µM) of 0.563 and a relative viability (NCI-H2342; first compound 0.1265 µM) of 0.547. For the same molecule, the relative viability (NCI-H2342; first compound 0.4 µM) was 0.574, the relative viability (NCI-H2342; first compound 1.265 µM) was 0.273 and the relative viability (NCI-H2342; first compound 4 µM) was 0.443. It also gave a relative viability (BEN; first compound 0.04 µM) of 0.554, a relative viability (BEN; first compound 0.1265 µM) of 0.482 and a relative viability (BEN; first compound 0.4 µM) of 0.509. For the same molecule, the relative viability (BEN; first compound 1.265 µM) was 0.484, the relative viability (BEN; first compound 4 µM) was 0.531 and the relative viability (HOP-62; first compound 0.04 µM) was 0.357. It also gave a relative viability (HOP-62; first compound 0.1265 µM) of 0.359, a relative viability (HOP-62; first compound 0.4 µM) of 0.307 and a relative viability (HOP-62; first compound 1.265 µM) of 0.327. For the same molecule, the relative viability (HOP-62; first compound 4 µM) was 0.334.
